Assay results from PubChem BioAssay (NCI).
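Grown in 96-well plates, cells were treated for 48 hours with each compound at five concentrations. Insufficient inhibition: endpoint recorded as highest concentration tested. The concentration for 50% growth inhibition is given as GI50. TGI: total growth inhibition.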

Legend:
Experiment in all cases: inhibition of tumour cell growth, NCI panel, 48 h
ACHN renal = system: ACHN renal
COLO 205 colon = system: COLO 205 colon
HCT-15 colon = system: HCT-15 colon
KM12 colon = system: KM12 colon
MOLT-4 leukemia = system: MOLT-4 leukemia
OVCAR-4 ovarian = system: OVCAR-4 ovarian
RPMI-8226 leukemia = system: RPMI-8226 leukemia
RXF 393 renal = system: RXF 393 renal
UACC-62 melanoma = system: UACC-62 melanoma

Row | SMILES | GI50 (ACHN renal) [µM] | TGI (ACHN renal) [µM] | GI50 (COLO 205 colon) [µM] | TGI (COLO 205 colon) [µM] | GI50 (HCT-15 colon) [µM] | TGI (HCT-15 colon) [µM] | GI50 (KM12 colon) [µM] | TGI (KM12 colon) [µM] | GI50 (MOLT-4 leukemia) [µM] | TGI (MOLT-4 leukemia) [µM] | GI50 (OVCAR-4 ovarian) [µM] | TGI (OVCAR-4 ovarian) [µM] | GI50 (RPMI-8226 leukemia) [µM] | TGI (RPMI-8226 leukemia) [µM] | GI50 (RXF 393 renal) [µM] | TGI (RXF 393 renal) [µM] | GI50 (UACC-62 melanoma) [µM] | TGI (UACC-62 melanoma) [µM]
1 | N.N.N.N.N.NC(=O)c1nn[n-]n1.[Cl-].[Co+3] | > 100 | > 100 | > 100 | > 100 | > 100 | > 100 | > 100 | > 100 | > 100 | > 100 | > 100 | > 100 | > 100 | > 100 | > 100 | > 100 | > 100 | > 100
2 | COc1cc(Br)c(C=Nc2cccc3cc(OC)c(OC)cc23)cc1OC |  | > 100 |  | > 100 |  | > 100 |  | > 100 |  | > 100 |  | > 100 |  | > 100 |  | 50.3 |  | > 100
3 | O=C1CC(O)CC(=O)C1=C(O)CCCCCCCCCCc1ccccc1 (stereo unspecified) |  | > 100 |  | > 100 |  |  |  | > 100 |  | > 100 |  | > 100 |  | > 100 |  | > 100 |  | > 100
4 | O=C(O)CCN(CCCCN(CCC(=O)O)CCC(=O)O)CCC(=O)O |  | > 100 |  | > 100 |  | > 100 |  | > 100 |  | > 100 |  | > 100 |  | > 100 |  |  |  | > 100
5 | COc1ccc(C23C(=O)c4ccccc4N2O[C@H]2C(=O)N(c4ccccc4)C(=O)[C@H]23)cc1 (stereo partly specified) |  | > 100 |  | > 100 |  | > 100 |  | > 100 |  | > 100 |  | > 100 |  | > 100 |  | > 100 |  | > 100
6 | N.N.N.N.[Co+3].[N-]=[N+]=[N-].[N-]=[N+]=[N-].[N-]=[N+]=[N-] | 52 | > 100 | > 100 | > 100 | > 100 | > 100 | > 100 | > 100 | 36 | > 100 | > 100 | > 100 | > 100 | > 100 |  |  | 85.2 | > 100
7 | O=C1N(C2CCCCC2)CC12CCCCC2 |  | > 100 |  | > 100 |  | > 100 |  |  |  | > 100 |  | > 100 |  | > 100 |  | > 100 |  | > 100
8 | Cc1nnn[n-]1.N.N.N.N.N.[Cl-].[Co+3] | > 100 | > 100 | > 100 | > 100 |  |  | > 100 | > 100 | > 100 | > 100 |  |  | > 100 | > 100 | > 100 | > 100 | > 100 | > 100
9 | CC1(C)O[C@H]2[C@H](O)C[C@](O)(CO)C[C@H]2O1 |  | > 100 |  | > 100 |  | > 100 |  | > 100 |  | > 100 |  | > 100 |  | > 100 |  | > 100 |  | > 100
10 | NC(=O)C(=O)N/N=C1\C(=O)N(c2ccc(Cl)cc2Cl)C(=O)C1C(=O)Nc1ccc(Cl)cc1Cl (stereo unspecified) |  | > 100 |  | > 100 |  | > 100 |  | > 100 |  | > 100 |  |  |  | > 100 |  | > 100 |  | > 100
11 | O=[N+]([O-])c1ccc(C[P+](c2ccccc2)(c2ccccc2)c2ccccc2)cc1 |  | > 100 |  | > 100 |  | > 100 |  | > 100 |  | > 100 |  |  |  | > 100 |  | > 100 |  | 95.6
12 | CC1(C)C2CCC13C(=O)C1OC3(C2)C2C(=O)c3cc4ccccc4cc3C(=O)C12 (stereo unspecified) | 10.4 | 26.3 | 14.7 | > 100 | 9.28 | 68.8 | 3.79 | 25.1 | 1.76 | 19.2 |  |  |  |  | 8.4 | 46.2 |  | 
13 | COC(=O)NC(=O)c1cn(C2OC(CO)C(O)C2O)c(=O)[nH]c1=O (stereo unspecified) |  | > 100 |  | > 100 |  | > 100 |  | > 100 |  | > 100 |  | > 100 |  | > 100 |  |  |  | > 100
14 | CCOC(=O)C12CCCC1(O)N(NC(=O)OC(C)(C)C)C(C)=C2C(=O)OC (stereo unspecified) |  | > 100 |  | > 100 |  | > 100 |  | > 100 |  | > 100 |  | > 100 |  | > 100 |  |  |  | > 100
15 | CCCCCCCCCCCc1nnc(N)o1 |  | > 100 |  | > 100 |  | > 100 |  | > 100 |  | > 100 |  | > 100 |  | > 100 |  |  |  | > 100
